The source of these data is patent US20240174723A1, “STAPLED ANTIMICROBIAL PEPTIDES (STAMPS) AND USES THEREOF” (Lytica Therapeutics, Inc., priority 2021, published 2024).

In one data set the test system is E. coli. In kind it is cell-based, Escherichia coli. Put shortly: (§1)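 Colonies are grown overnight at 37 °C, diluted and regrown 3-4 h. Bacteria in MHB or MHB II are then added to serial peptide dilutions to reach 5×10^5 CFU/ml. Plates are incubated 20-24 h at 37 °C and scored for the lowest concentration without visible growth.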
Another data set concerns P. aeruginosa. The class given is cell-based, Pseudomonas aeruginosa. Put shortly: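 MIC taken as lowest peptide concentration with no visible growth after 20-24 h at 37 °C. Peptide serial dilutions from water stocks met P. aeruginosa inoculum (5×10^5 CFU/ml final) in MHB or MHB II, per a CLSI-adapted microbroth protocol.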
In a further data set the test system is S. aureus. The class given is cell-based, Staphylococcus aureus. Put shortly: as §1
Another data set can be described thus: in vitro. In kind it is cell-based. Conditions: human, Inhibitory Concentration at 50% Cytotoxicity (IC50) Human Liver Cells (HepG2). Put shortly: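 Cytotoxicity read by CellTiter-Glo luminescence after 48 h at 37 °C exposure to serially diluted StAMPs or vehicle. HepG2 cells were grown in EMEM plus 10% FBS and given 4 h to attach before dosing; peptides came from a 5 mg/mL aqueous stock.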

For another data set, the system named is A. baumannii. In kind it is cell-based, Acinetobacter baumannii. Put shortly:
as §1

A further data set has as its system K. pneumoniae. In kind it is cell-based, Klebsiella pneumoniae. Put shortly: as §1

In brackets after ≈: the same amount, converted by molar mass. Positions of bridges follow the written chain, without caps; N, C: chain ends. Non-standard residues stand in square brackets, D forms with d. Residues, ends and D or L forms follow the SMILES beside them. S5 = C=CCCC[C@](C)(N)C(=O)O; Dap = NC[C@H](N)C(=O)O

A word on the IC50: it is the concentration needed to halve the response being measured. A low value points to inhibition by little substance. As to `CC(C)[C@@H]1NC(=O)[C@@](C)(NC(=O)[C@H](C)NC(=O)[C@H](CCCCN)NC(=O)[C@H](CO)NC(=O)[C@H](Cc2ccccc2)NC(=O)[C@H](CCCCN)NC(=O)[C@H](CCCCN)NC(=O)[C@H](CCCCN)NC(=O)[C@H](CCCCN)NC(=O)[C@H](CN)NC(=O)[C@]2(C)CCCC=CCCC[C@](C)(NC(=O)CN)C(=O)NCC(=O)N[C@@H](CCCCN)C(=O)N[C@@H](Cc3ccccc3)C(=O)N2)CCCC=CCCC[C@@](C)(C(=O)N[C@@H](C)C(=O)N[C@@H](CCCCN)C(=O)N[C@@H](CCCCN)C(N)=O)NC(=O)[C@H](CCC(=O)O)NC(=O)CNC1=O` [compound 86] (H-G[S5]GKF[S5][Dap]KKKKFSKA[S5]VGE[S5]AKK-NH2; staple 2-6, 16-20), the “Minimum Inhibitory Concentration (MIC) E. coli” value with E. coli worked out at 2 µg/mL. The “Minimum Inhibitory Concentration (MIC) P. aeruginosa” value with P. aeruginosa was 1 µg/mL. Besides, the “Minimum Inhibitory Concentration (MIC) S. aureus” value with S. aureus was found to be 64 µg/mL. In “in vitro”, this compound registered an IC50 at 48 hours above 200 µg/mL. Besides, in the data set with A. baumannii, the “Minimum Inhibitory Concentration (MIC) A. baumannii” value is 1 µg/mL. For the same compound, the “Minimum Inhibitory Concentration (MIC) K. pneumoniae” value with K. pneumoniae stood at 32 µg/mL.

On to `CC(C)[C@@H]1NC(=O)[C@@](C)(NC(=O)[C@H](CO)NC(=O)[C@H](CCCCN)NC(=O)CNC(=O)[C@H](Cc2ccccc2)NC(=O)[C@H](CCCCN)NC(=O)[C@H](CCCCN)NC(=O)[C@H](CCCCN)NC(=O)[C@H](CCCCN)NC(=O)[C@H](CN)NC(=O)[C@]2(C)CCCC=CCCC[C@](C)(NC(=O)CN)C(=O)NCC(=O)N[C@@H](CCCCN)C(=O)N[C@@H](Cc3ccccc3)C(=O)N2)CCCC=CCCC[C@@](C)(C(=O)N[C@@H](C)C(=O)N[C@@H](CCCCN)C(=O)N[C@@H](CCCCN)C(N)=O)NC(=O)[C@H](CCC(=O)O)NC(=O)CNC1=O` [compound 87] (H-G[S5]GKF[S5][Dap]KKKKFGKS[S5]VGE[S5]AKK-NH2; staple 2-6, 16-20), for which, in the data set with E. coli, the “Minimum Inhibitory Concentration (MIC) E. coli” value is 4 µg/mL. In the data set on P. aeruginosa, the “Minimum Inhibitory Concentration (MIC) P. aeruginosa” value came to 2 µg/mL. For the same compound, the “Minimum Inhibitory Concentration (MIC) S. aureus” value in the data set on S. aureus is 64 µg/mL. In addition, the IC50 at 48 hours in the data set “in vitro” was above 200 µg/mL. The “Minimum Inhibitory Concentration (MIC) A. baumannii” value in the data set with A. baumannii was determined as 1 µg/mL. Besides, the “Minimum Inhibitory Concentration (MIC) K. pneumoniae” value in the data set with K. pneumoniae was 64 µg/mL.

As for `CC(C)[C@@H]1NC(=O)[C@@](C)(NC(=O)[C@H](C)NC(=O)[C@H](CCCCN)NC(=O)CNC(=O)[C@H](Cc2ccccc2)NC(=O)[C@H](CCCCN)NC(=O)[C@H](CCCCN)NC(=O)[C@H](CCCCN)NC(=O)[C@H](CCCCN)NC(=O)[C@H](CN)NC(=O)[C@]2(C)CCCC=CCCC[C@](C)(NC(=O)CN)C(=O)NCC(=O)N[C@@H](CCCCN)C(=O)N[C@@H](Cc3ccccc3)C(=O)N2)CCCC=CCCC[C@@](C)(C(=O)N[C@@H](C)C(=O)N[C@@H](CCCCN)C(=O)N[C@@H](CCCCN)C(N)=O)NC(=O)[C@H](CCC(=O)O)NC(=O)[C@H](CO)NC1=O` [compound 88] (H-G[S5]GKF[S5][Dap]KKKKFGKA[S5]VSE[S5]AKK-NH2; staple 2-6, 16-20), in the data set with E. coli, the “Minimum Inhibitory Concentration (MIC) E. coli” value amounted to 1 µg/mL. Also, the “Minimum Inhibitory Concentration (MIC) P. aeruginosa” value in the data set on P. aeruginosa worked out at 1 µg/mL. Moreover, in the data set with S. aureus, the “Minimum Inhibitory Concentration (MIC) S. aureus” value is above 64 µg/mL. Moreover, in “in vitro”, the IC50 at 48 hours was determined as 168 µg/mL (≈ 65.8 µM). Moreover, in the data set on A. baumannii, the “Minimum Inhibitory Concentration (MIC) A. baumannii” value worked out at 1 µg/mL. For the same compound, the “Minimum Inhibitory Concentration (MIC) K. pneumoniae” value with K. pneumoniae came out at 32 µg/mL.
